Numbers after ± are expanded uncertainties.
Assay: refractive index (Na D-line) (dimensionless); xn = mol fraction of the nth substance listed
Conditions: 103 kPa, Liquid, Standard Abbe refractometry

CO[Si](C)(C)OC [dimethoxydimethylsilane] + CO[Si](C)(OC)c1ccccc1
refractive index
Conditions | 298.15 K | 303.15 K | 308.15 K | 313.15 K | 318.15 K
x2 = 0 | 1.36816 ± 0.004 | 1.36559 ± 0.004 | 1.36297 ± 0.004 | 1.36035 ± 0.004 | 1.35771 ± 0.004
x2 = 0.0501 | 1.37551 ± 0.004 | 1.37295 ± 0.004 | 1.37035 ± 0.004 | 1.36774 ± 0.004 | 1.36513 ± 0.004
x2 = 0.1001 | 1.3826 ± 0.004 | 1.38005 ± 0.004 | 1.37748 ± 0.004 | 1.37492 ± 0.004 | 1.37233 ± 0.004
x2 = 0.15 | 1.38945 ± 0.004 | 1.38696 ± 0.004 | 1.38442 ± 0.004 | 1.3819 ± 0.004 | 1.37936 ± 0.004
x2 = 0.2 | 1.3961 ± 0.004 | 1.39364 ± 0.004 | 1.39111 ± 0.004 | 1.38864 ± 0.004 | 1.38612 ± 0.004
x2 = 0.25 | 1.40247 ± 0.004 | 1.40001 ± 0.004 | 1.39748 ± 0.004 | 1.39498 ± 0.004 | 1.39248 ± 0.004
x2 = 0.2999 | 1.40864 ± 0.004 | 1.40619 ± 0.004 | 1.40369 ± 0.004 | 1.40119 ± 0.004 | 1.3987 ± 0.004
x2 = 0.3499 | 1.41459 ± 0.004 | 1.41213 ± 0.004 | 1.40966 ± 0.004 | 1.40726 ± 0.004 | 1.4048 ± 0.004
x2 = 0.4001 | 1.42041 ± 0.004 | 1.41798 ± 0.004 | 1.41551 ± 0.004 | 1.41306 ± 0.004 | 1.41059 ± 0.004
x2 = 0.4501 | 1.42603 ± 0.004 | 1.42366 ± 0.004 | 1.42126 ± 0.004 | 1.41886 ± 0.004 | 1.41642 ± 0.004
x2 = 0.5001 | 1.43147 ± 0.004 | 1.42909 ± 0.004 | 1.42667 ± 0.004 | 1.42426 ± 0.004 | 1.42184 ± 0.004
x2 = 0.55 | 1.43672 ± 0.004 | 1.43435 ± 0.004 | 1.43195 ± 0.004 | 1.42958 ± 0.004 | 1.42718 ± 0.004
x2 = 0.6 | 1.44182 ± 0.004 | 1.43946 ± 0.004 | 1.43707 ± 0.004 | 1.43469 ± 0.004 | 1.43232 ± 0.004
x2 = 0.6499 | 1.44673 ± 0.004 | 1.44437 ± 0.004 | 1.44197 ± 0.004 | 1.43957 ± 0.004 | 1.43718 ± 0.004
x2 = 0.6999 | 1.45155 ± 0.004 | 1.4492 ± 0.004 | 1.44681 ± 0.004 | 1.44442 ± 0.004 | 1.44204 ± 0.004
x2 = 0.75 | 1.45621 ± 0.004 | 1.45386 ± 0.004 | 1.45148 ± 0.004 | 1.44913 ± 0.004 | 1.44677 ± 0.004
x2 = 0.7997 | 1.46072 ± 0.004 | 1.45837 ± 0.004 | 1.456 ± 0.004 | 1.45364 ± 0.004 | 1.45125 ± 0.004
x2 = 0.8499 | 1.46514 ± 0.004 | 1.46278 ± 0.004 | 1.46042 ± 0.004 | 1.45805 ± 0.004 | 1.45569 ± 0.004
x2 = 0.8999 | 1.46939 ± 0.004 | 1.46704 ± 0.004 | 1.46469 ± 0.004 | 1.46234 ± 0.004 | 1.45999 ± 0.004
x2 = 0.95 | 1.47356 ± 0.004 | 1.47121 ± 0.004 | 1.46886 ± 0.004 | 1.46651 ± 0.004 | 1.46417 ± 0.004

C=C[Si](OC)(OC)OC [trimethoxy(vinyl)silane] + CO[Si](C)(OC)c1ccccc1
refractive index
Conditions | 298.15 K | 303.15 K | 308.15 K | 313.15 K | 318.15 K
x2 = 0 | 1.39022 ± 0.004 | 1.38775 ± 0.004 | 1.38535 ± 0.004 | 1.3829 ± 0.004 | 1.38046 ± 0.004
x2 = 0.05 | 1.3954 ± 0.004 | 1.39299 ± 0.004 | 1.39056 ± 0.004 | 1.38815 ± 0.004 | 1.38572 ± 0.004
x2 = 0.1 | 1.40052 ± 0.004 | 1.39811 ± 0.004 | 1.39569 ± 0.004 | 1.39329 ± 0.004 | 1.39082 ± 0.004
x2 = 0.1499 | 1.40552 ± 0.004 | 1.40314 ± 0.004 | 1.40073 ± 0.004 | 1.3983 ± 0.004 | 1.39588 ± 0.004
x2 = 0.2 | 1.41045 ± 0.004 | 1.40807 ± 0.004 | 1.40568 ± 0.004 | 1.40327 ± 0.004 | 1.40083 ± 0.004
x2 = 0.2501 | 1.41527 ± 0.004 | 1.41288 ± 0.004 | 1.41047 ± 0.004 | 1.40809 ± 0.004 | 1.40568 ± 0.004
x2 = 0.2999 | 1.41998 ± 0.004 | 1.41762 ± 0.004 | 1.41524 ± 0.004 | 1.41284 ± 0.004 | 1.41043 ± 0.004
x2 = 0.35 | 1.42465 ± 0.004 | 1.42228 ± 0.004 | 1.41987 ± 0.004 | 1.4175 ± 0.004 | 1.4151 ± 0.004
x2 = 0.4001 | 1.42919 ± 0.004 | 1.42683 ± 0.004 | 1.42444 ± 0.004 | 1.42208 ± 0.004 | 1.41967 ± 0.004
x2 = 0.4501 | 1.43364 ± 0.004 | 1.43129 ± 0.004 | 1.42891 ± 0.004 | 1.42653 ± 0.004 | 1.42413 ± 0.004
x2 = 0.5 | 1.43793 ± 0.004 | 1.43559 ± 0.004 | 1.43321 ± 0.004 | 1.43084 ± 0.004 | 1.42843 ± 0.004
x2 = 0.5499 | 1.44232 ± 0.004 | 1.43996 ± 0.004 | 1.43759 ± 0.004 | 1.4352 ± 0.004 | 1.43283 ± 0.004
x2 = 0.6 | 1.44653 ± 0.004 | 1.44418 ± 0.004 | 1.44182 ± 0.004 | 1.43943 ± 0.004 | 1.43706 ± 0.004
x2 = 0.6499 | 1.45067 ± 0.004 | 1.44831 ± 0.004 | 1.44594 ± 0.004 | 1.44356 ± 0.004 | 1.4412 ± 0.004
x2 = 0.7 | 1.45459 ± 0.004 | 1.45224 ± 0.004 | 1.4499 ± 0.004 | 1.44754 ± 0.004 | 1.44517 ± 0.004
x2 = 0.75 | 1.45871 ± 0.004 | 1.45636 ± 0.004 | 1.454 ± 0.004 | 1.45165 ± 0.004 | 1.44929 ± 0.004
x2 = 0.8001 | 1.46249 ± 0.004 | 1.46015 ± 0.004 | 1.45778 ± 0.004 | 1.45542 ± 0.004 | 1.45307 ± 0.004
x2 = 0.8498 | 1.46647 ± 0.004 | 1.46413 ± 0.004 | 1.46178 ± 0.004 | 1.45942 ± 0.004 | 1.45707 ± 0.004
x2 = 0.8999 | 1.47026 ± 0.004 | 1.46791 ± 0.004 | 1.46557 ± 0.004 | 1.46321 ± 0.004 | 1.46087 ± 0.004
x2 = 0.9499 | 1.47397 ± 0.004 | 1.47163 ± 0.004 | 1.46928 ± 0.004 | 1.46693 ± 0.004 | 1.46458 ± 0.004

— the NIST ThermoML archive (doi:10.1016/j.jct.2016.10.033)
